Laboratory results from PMC4243253 (Biochemical Journal, 2014).
pKd: −log10 of the molar value. Read-outs that look alike come from different tables or passages of the source.

What was measured:
BaKynB [1] = target: T1, BaKynB (Bacillus anthracis, UniProt Q81PP9); experiment: biochemical
T1 construct: gene kynB

BaKynB [2] = target: T1, BaKynB; experiment: biochemical; remark: listed apart in the source

T1 sequence (Q81PP9 whole entry, looked up): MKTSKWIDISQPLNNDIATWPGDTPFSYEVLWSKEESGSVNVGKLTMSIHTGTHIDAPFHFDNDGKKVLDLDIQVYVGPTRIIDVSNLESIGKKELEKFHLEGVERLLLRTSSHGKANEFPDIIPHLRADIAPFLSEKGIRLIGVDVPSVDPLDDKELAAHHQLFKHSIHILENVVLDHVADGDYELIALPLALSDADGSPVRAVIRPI

Compound | pKd (BaKynB [1]) | pKd (BaKynB [2])
CC(=O)c1ccccc1N [2-aminoacetophenone] | ~4.30 | –
Nc1ccccc1C(=O)C[C@H](N)C(=O)O [L-kynurenine, (S)-2-amino-4-(2-aminophenyl)-4-oxobutanoic acid] | – | ~4.22
